What is called inhibition is the change of the read-out against control, counted positive when it falls.

Conditions in all cases: Compound concentration 10 µM
Experiment [1] deals with D(3) dopamine receptor (Homo sapiens) (UniProt P35462).
Experiment [2] deals with Muscarinic acetylcholine receptor M3 (Homo sapiens) (UniProt P20309).
Experiment [3] deals with Histamine H4 receptor (Homo sapiens) (UniProt Q9H3N8).
The target of experiment [4] is T1, D(4) dopamine receptor (Homo sapiens) (UniProt P21917).
T1 sequence (whole entry): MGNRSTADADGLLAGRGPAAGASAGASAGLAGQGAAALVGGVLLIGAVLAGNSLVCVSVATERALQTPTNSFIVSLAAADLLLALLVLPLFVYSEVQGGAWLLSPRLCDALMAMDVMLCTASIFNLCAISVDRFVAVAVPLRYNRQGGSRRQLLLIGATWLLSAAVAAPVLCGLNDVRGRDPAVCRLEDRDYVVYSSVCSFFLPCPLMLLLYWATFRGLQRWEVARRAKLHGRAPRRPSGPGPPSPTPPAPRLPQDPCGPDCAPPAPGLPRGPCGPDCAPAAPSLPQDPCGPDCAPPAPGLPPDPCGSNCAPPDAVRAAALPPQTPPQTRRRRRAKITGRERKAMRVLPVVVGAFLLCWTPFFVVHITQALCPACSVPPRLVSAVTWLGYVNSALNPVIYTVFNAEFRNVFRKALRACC

In experiment [5] the target is 5-hydroxytryptamine receptor 6 (Homo sapiens) (UniProt P50406).
Sequence of 5-hydroxytryptamine receptor 6 (Homo sapiens) (P50406 whole entry): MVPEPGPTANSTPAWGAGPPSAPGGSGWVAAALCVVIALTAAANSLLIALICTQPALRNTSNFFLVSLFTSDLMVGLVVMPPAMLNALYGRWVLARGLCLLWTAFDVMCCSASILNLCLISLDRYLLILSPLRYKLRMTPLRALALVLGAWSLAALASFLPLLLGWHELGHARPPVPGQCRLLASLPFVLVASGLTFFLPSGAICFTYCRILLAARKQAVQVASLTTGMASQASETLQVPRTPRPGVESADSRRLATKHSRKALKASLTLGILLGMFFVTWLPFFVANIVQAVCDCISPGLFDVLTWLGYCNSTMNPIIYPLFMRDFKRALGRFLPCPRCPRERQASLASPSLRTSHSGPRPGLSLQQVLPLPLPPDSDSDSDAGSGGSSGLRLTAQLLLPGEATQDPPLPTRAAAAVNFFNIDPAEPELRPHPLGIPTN
For experiment [6], the target named is 5-hydroxytryptamine receptor 1E (Homo sapiens) (UniProt P28566).
Sequence of 5-hydroxytryptamine receptor 1E (Homo sapiens) (P28566 whole entry): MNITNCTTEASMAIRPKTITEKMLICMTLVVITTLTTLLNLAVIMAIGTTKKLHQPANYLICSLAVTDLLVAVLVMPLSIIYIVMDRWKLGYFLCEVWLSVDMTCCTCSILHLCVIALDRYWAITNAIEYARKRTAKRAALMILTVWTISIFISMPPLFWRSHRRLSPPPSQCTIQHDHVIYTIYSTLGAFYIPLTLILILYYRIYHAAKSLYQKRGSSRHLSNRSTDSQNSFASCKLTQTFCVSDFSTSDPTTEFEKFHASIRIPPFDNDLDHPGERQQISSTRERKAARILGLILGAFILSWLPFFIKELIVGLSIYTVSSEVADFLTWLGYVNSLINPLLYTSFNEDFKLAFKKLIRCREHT
For experiment [7], the target named is Sodium-dependent serotonin transporter (Homo sapiens) (UniProt P31645).
Sequence of Sodium-dependent serotonin transporter (Homo sapiens) (P31645 whole entry, looked up): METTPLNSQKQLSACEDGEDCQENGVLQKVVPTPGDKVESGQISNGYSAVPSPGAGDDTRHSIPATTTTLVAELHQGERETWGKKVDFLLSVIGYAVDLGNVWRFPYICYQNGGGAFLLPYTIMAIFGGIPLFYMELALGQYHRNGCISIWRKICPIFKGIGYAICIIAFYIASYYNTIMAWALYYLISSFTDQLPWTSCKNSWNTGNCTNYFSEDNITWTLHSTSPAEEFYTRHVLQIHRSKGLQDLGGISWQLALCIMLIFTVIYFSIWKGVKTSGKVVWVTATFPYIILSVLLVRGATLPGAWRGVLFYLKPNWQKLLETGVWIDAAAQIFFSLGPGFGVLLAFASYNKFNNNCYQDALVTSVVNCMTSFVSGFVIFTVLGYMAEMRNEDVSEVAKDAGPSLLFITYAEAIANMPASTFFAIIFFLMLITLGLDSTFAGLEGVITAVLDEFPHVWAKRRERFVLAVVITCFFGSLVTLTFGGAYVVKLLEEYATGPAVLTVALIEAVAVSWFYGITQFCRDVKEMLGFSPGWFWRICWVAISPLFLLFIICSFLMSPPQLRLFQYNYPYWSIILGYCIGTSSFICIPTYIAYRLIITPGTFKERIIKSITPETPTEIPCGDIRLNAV
Experiment [8] deals with T2, 5-hydroxytryptamine receptor 1A (Homo sapiens) (UniProt P08908).
T2 sequence (whole entry): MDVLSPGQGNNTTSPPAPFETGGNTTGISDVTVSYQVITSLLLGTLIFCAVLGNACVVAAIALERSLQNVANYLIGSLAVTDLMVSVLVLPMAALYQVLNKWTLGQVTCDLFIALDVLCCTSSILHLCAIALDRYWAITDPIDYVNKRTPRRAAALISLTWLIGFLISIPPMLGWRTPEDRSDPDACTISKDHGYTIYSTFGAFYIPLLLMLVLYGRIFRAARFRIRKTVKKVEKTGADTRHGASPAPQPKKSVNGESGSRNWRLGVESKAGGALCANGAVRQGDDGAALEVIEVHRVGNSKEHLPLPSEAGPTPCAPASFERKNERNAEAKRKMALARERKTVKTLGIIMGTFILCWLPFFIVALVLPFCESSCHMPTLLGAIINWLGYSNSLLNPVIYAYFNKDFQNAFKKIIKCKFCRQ

Experiment [9] deals with Histamine H3 receptor (Homo sapiens) (UniProt Q9Y5N1).
Sequence of Histamine H3 receptor (Homo sapiens) (Q9Y5N1 whole entry): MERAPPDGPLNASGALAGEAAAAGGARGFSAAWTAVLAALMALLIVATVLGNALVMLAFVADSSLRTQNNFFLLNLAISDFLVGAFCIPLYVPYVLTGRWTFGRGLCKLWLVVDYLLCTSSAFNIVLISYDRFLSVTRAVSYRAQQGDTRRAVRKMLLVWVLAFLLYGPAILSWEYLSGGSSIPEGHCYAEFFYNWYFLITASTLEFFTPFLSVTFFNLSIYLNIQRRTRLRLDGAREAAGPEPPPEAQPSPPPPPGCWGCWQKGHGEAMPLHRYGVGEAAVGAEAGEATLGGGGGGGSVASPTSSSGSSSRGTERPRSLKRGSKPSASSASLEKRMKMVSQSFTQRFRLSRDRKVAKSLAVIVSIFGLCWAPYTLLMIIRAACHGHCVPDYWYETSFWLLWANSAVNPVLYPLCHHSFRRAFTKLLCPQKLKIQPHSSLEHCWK
Experiment [10] addresses T3, Alpha-2C adrenergic receptor (Homo sapiens) (UniProt P18825).
T3 sequence (whole entry): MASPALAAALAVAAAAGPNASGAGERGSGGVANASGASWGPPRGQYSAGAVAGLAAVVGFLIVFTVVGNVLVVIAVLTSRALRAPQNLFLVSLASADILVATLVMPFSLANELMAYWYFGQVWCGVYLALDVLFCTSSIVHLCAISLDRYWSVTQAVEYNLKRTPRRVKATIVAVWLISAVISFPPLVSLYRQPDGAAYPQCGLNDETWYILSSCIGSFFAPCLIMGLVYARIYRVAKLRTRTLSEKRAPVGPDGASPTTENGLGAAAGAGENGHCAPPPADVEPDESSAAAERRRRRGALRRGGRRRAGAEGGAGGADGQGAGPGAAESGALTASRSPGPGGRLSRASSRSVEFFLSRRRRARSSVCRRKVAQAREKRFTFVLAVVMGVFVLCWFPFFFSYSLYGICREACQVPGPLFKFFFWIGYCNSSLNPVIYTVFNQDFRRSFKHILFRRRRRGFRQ

For experiment [11], the target named is T4, 5-hydroxytryptamine receptor 3A (Homo sapiens) (UniProt P46098).
T4 sequence (whole entry): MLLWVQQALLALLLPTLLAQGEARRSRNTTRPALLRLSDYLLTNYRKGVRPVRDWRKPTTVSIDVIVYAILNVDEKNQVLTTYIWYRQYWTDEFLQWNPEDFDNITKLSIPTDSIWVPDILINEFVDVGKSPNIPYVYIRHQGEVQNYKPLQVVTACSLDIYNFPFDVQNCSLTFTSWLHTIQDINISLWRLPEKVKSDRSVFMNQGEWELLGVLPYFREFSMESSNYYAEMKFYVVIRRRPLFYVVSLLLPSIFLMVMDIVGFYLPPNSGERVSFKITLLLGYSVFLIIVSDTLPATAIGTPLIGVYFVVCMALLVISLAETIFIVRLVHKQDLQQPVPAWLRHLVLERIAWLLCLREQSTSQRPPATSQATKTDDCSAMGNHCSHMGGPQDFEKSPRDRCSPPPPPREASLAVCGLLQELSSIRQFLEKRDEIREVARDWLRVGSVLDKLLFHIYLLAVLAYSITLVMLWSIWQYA

Experiment [12] concerns the target 5-hydroxytryptamine receptor 7 (Homo sapiens) (UniProt P34969).
The target in experiment [13] is T5, Alpha-2A adrenergic receptor (Homo sapiens) (UniProt P08913).
T5 sequence (whole entry): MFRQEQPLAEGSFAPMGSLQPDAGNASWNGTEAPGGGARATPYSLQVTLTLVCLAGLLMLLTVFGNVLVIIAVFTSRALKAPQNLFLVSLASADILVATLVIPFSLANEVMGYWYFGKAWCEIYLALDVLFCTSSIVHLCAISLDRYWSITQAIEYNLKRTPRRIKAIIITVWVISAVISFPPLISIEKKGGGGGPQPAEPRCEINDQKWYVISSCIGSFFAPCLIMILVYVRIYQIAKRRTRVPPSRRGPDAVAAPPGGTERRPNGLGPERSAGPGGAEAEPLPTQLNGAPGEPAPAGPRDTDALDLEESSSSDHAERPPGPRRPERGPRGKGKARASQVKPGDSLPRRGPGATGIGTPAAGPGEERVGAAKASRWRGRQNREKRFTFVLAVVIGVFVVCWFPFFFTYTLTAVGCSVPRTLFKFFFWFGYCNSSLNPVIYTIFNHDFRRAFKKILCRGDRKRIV

Experiment [14] addresses Sodium-dependent noradrenaline transporter (Homo sapiens) (UniProt P23975).

Sequence of Muscarinic acetylcholine receptor M3 (Homo sapiens) (P20309 whole entry, looked up): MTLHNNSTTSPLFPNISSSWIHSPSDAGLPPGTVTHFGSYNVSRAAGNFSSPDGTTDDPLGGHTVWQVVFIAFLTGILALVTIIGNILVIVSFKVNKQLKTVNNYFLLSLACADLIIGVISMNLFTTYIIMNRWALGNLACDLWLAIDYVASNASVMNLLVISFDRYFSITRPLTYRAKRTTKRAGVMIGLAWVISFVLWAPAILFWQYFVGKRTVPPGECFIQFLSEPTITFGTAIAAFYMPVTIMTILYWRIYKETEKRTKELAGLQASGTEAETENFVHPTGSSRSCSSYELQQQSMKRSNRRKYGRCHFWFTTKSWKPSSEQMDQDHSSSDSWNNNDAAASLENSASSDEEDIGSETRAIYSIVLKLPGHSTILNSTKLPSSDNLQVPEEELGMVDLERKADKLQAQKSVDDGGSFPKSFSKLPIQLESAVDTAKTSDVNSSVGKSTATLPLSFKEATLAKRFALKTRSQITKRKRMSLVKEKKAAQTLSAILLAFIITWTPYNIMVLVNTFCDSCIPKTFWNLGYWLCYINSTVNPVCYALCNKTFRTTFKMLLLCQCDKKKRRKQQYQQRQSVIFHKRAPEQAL
Sequence of 5-hydroxytryptamine receptor 7 (Homo sapiens) (P34969 whole entry): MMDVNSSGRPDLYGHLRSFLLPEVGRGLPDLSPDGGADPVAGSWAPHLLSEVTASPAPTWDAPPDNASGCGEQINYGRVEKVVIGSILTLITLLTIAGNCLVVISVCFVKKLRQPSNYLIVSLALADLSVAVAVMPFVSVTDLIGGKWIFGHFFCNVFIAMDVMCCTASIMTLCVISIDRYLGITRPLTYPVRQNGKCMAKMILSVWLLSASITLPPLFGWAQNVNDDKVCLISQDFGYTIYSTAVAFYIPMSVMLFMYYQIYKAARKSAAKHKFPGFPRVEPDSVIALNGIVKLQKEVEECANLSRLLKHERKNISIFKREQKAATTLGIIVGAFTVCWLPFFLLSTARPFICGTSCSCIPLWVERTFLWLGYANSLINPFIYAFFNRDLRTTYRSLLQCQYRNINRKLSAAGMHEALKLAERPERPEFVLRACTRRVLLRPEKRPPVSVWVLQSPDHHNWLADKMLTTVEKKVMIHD
Sequence of Sodium-dependent noradrenaline transporter (Homo sapiens) (P23975 whole entry): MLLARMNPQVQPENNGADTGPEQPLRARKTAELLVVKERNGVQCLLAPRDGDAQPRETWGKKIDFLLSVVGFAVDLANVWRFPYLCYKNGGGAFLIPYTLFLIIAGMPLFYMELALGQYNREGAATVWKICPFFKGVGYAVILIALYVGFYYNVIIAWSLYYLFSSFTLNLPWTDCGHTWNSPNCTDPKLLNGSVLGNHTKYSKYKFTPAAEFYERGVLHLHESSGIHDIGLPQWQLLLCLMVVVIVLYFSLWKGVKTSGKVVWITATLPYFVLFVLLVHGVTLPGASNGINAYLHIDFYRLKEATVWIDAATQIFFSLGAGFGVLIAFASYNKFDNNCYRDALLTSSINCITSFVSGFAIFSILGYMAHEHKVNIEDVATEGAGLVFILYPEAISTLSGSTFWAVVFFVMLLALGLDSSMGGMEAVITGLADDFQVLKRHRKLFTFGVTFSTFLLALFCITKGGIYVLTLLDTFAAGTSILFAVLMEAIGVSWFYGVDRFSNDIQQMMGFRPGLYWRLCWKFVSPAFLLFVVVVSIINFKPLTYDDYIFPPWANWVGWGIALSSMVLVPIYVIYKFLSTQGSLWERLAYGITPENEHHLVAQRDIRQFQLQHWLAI
Sequence of D(3) dopamine receptor (Homo sapiens) (P35462 whole entry): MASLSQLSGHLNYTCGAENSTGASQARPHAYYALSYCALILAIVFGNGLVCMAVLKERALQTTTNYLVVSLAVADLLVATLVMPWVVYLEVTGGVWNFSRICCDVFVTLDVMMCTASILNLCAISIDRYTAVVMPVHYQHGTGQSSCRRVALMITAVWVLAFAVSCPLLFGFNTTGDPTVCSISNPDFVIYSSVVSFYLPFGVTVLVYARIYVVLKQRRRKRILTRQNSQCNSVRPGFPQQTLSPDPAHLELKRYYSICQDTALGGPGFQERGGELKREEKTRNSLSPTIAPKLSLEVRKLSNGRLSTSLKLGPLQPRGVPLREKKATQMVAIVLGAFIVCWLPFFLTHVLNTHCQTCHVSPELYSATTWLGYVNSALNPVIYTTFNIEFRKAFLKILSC
Sequence of Histamine H4 receptor (Homo sapiens) (Q9H3N8 whole entry): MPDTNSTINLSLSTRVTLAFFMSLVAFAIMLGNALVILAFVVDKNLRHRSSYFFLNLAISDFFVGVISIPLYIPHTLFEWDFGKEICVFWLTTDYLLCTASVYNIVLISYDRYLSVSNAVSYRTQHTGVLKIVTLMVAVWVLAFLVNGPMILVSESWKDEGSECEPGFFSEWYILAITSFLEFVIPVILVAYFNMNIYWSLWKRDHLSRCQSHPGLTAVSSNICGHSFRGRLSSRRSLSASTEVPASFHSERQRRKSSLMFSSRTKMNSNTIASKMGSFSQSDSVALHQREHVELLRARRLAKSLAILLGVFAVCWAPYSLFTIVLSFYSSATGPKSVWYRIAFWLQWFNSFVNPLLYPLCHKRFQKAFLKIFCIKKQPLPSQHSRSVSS

`C[C@H](NC[C@H](O)CP(=O)(O)CC1CCCCC1)c1ccc(Cl)c(Cl)c1`: the inhibition in [1] was 19.5%; in experiment [2] it was -3.76%; in experiment [3] it was 1.86%; in [4], 13.4%; in experiment [5] it was 2.61%; in experiment [6], -8.21%. Besides, the inhibition was -2.56% in experiment [7]; -7.25% in experiment [8]; 17.5% in experiment [9]; -5.96% in [10]; 6.3% in experiment [11].
Take `CN(C(=O)Cc1ccc(Cl)c(Cl)c1)C(CN1CCCC1)c1cccc(OCC(=O)O)c1` (centres undefined): the inhibition in [1] was 3.88%; in [2], 9.38%; in experiment [3], 13.7%; in experiment [4] it was -5.18%; in experiment [5], 0.97%; in [12] it was -9.81%. For the same compound, the inhibition was -3.71% in experiment [6]; 24.9% in experiment [8]; 12.2% in experiment [13]; -7.51% in experiment [9]; 3.8% in [10]; 7.24% in experiment [11].
On to `N#Cc1cccc(C(=O)Nc2cc(-c3ccccc3)nn2-c2ccccc2)c1`, for which the inhibition in [1] was 30.4%; in experiment [4], 4.16%; in experiment [5] it was 6.69%; in experiment [6], 3.88%; in experiment [7], 6.36%; in [8] it was 14.8%. Further, the inhibition in experiment [13] was -0.39%; in [9], 7.12%.
With `C[C@H](Cc1cc2c(c(C(N)=O)c1)N(CCCO)CC2)NCCOc1ccccc1OCC(F)(F)F`, the inhibition was 94.1% in [1]; -2.64% in [2]; -6.83% in experiment [3]; 63.3% in experiment [4]; 83.6% in [12]; -2.22% in experiment [14]. In addition, the inhibition was -4.65% in experiment [6]; 100% in [8]; 84.6% in [13]; 82.5% in experiment [10]; 1.73% in experiment [11].
`CCCCN(CC)c1nc(C)nc2c1c(C)cn2-c1c(C)cc(C)cc1C`: the inhibition in [1] is 18.6%; in [3] it was 2.86%; in experiment [14] it was -0.04%; in experiment [6] it was 18.4%; in [7] it was 2.76%; in experiment [8], -6.24%. In addition, the inhibition in [13] is 4.06%; in [9], -0.29%; in experiment [10], -1.9%; in [11], -1.19%.
With `COc1ccc(S(=O)(=O)c2cc(OC)ccc2S(=O)(=O)c2ccc([C@H](C)NS(C)(=O)=O)cc2)cc1`, the inhibition in experiment [1] is 73.4%; in experiment [4], 58.7%; in [5] it was 96.5%; in experiment [14], -0.68%; in [6] it was -6.16%; in experiment [7] it was -7.38%. Moreover, the inhibition is -4.09% in experiment [13], 7.85% in experiment [10] and -2.2% in [11].
For the compound `CC(C)(N)C(=O)N[C@H](COCc1ccccc1)C(=O)N1CCC2(CC1)CN(S(C)(=O)=O)c1ccccc12`, the inhibition is 25.7% in [1]; 4.09% in experiment [3]; 5.9% in [5]; -2.84% in experiment [14]; 14.1% in [6]; 23.6% in experiment [7]. Besides, the inhibition in experiment [8] is -5.57%; in experiment [13], 10.4%; in experiment [9] it was -0.42%; in experiment [10] it was 3.03%; in experiment [11], 17.7%.
`COc1ccc(S(=O)(=O)N2c3ccc(Cl)cc3[C@](O)(c3ccccc3Cl)[C@@H]2C(=O)N2CCC[C@H]2C(N)=O)cc1OC`: the inhibition in [1] was 40.4%; in [3] it was 21.7%; in experiment [4] it was -3.97%; in experiment [5] it was -1.14%; in experiment [14] it was 2.92%; in experiment [7] it was 46.5%. The inhibition in experiment [8] was 8.75%; in experiment [13], 12.7%; in [9] it was 7.89%; in [10], -3.82%; in experiment [11] it was -3.87%.
On to `COc1ccccc1CN[C@H]1C2CCN(CC2)[C@H]1C(c1ccccc1)c1ccccc1`, for which the inhibition in [1] was 43%; in [2] it was 13.3%; in [3], 27.6%; in experiment [4] it was 15.3%; in experiment [5] it was 8.17%; in experiment [12], -6.37%. In addition, the inhibition in [6] was 5%; in experiment [8] it was -1.15%; in experiment [13], 11.1%; in [9], 11.3%; in [10], 1.59%; in experiment [11] it was 13.6%.
Regarding `N=C(N)SCCc1c[nH]cn1`, the inhibition was -0.38% in [1]; -9.79% in [2]; 111% in [3]; 6.59% in experiment [4]; -1.7% in experiment [5]; 19.2% in experiment [12]. Also, the inhibition in experiment [14] was 11.5%; in experiment [6], 26.2%; in experiment [13] it was 51.5%; in [9] it was 98.6%; in [10], 20.8%; in experiment [11] it was 45.7%.
For `CC(C)NCC(O)c1ccc(N)c(C#N)c1` (centres undefined), the inhibition is -2.07% in experiment [1]; -7.31% in [2]; 0.52% in [3]; -4.2% in experiment [4]; 18% in [5]; 20.1% in experiment [12]. Further, the inhibition in experiment [14] was 4.01%; in experiment [6], 32.7%; in [8] it was 37.6%; in experiment [13], -5.25%; in experiment [9] it was 3.66%; in [10], -3.24%.

For the origin of these results see ChEMBL document CHEMBL5442219.
